Source: patent US9771331B2, “Methods of identifying neuroprotective compounds for retinal ganglion cells” (THE JOHNS HOPKINS UNIVERSITY, priority 2005, dated 2017)
Entries after “also recorded” stand apart in the source; their conditions may differ.

Legend:
[1] = test system: retinal ganglion cells (RGCs); assay: High-content neurite outgrowth screen of purified retinal ganglion cell cultures (number of outgrowth neurons); type: cell-based, rat; details: for activity compared with TPAO / activity of compounds similar to TPAO: 4 different concentrations; for number of outgrowth neurons: 50 ng/ml, 120 hours, versus cultures grown in medium only
Procedure: Retinal ganglion cell harvest and immunopurification are performed as described above and in the specific Examples, below. A concentration range of neuroprotective compounds to be validated is prepared and added to test wells (e.g., to achieve final concentrations of 3 μM, 10 μM, 15 μM, 30 μM, 60 μM, 90 μM, 120 μM, and 150 μM in 1% DMSO in each well). For a neuroprotective compound obtained from the […]™ library, for example, 1 mg of desiccated compound can be resuspended in 22.2 μl of DMSO to a final stock solution of 150 mM. […] Afterwards, the solution can be stored in the dark at −20° C.
Neuroprotective compounds and positive control factors are added to the appropriate wells of a 96-well plate (e.g., 25 μl to each well in a 5× concentration prior to the seeding cells in a volume of 100 μl giving a final volume of 125 μl). Cells are incubated, stained, and imaged as described above and in the specific Examples, below. Experiments preferably are performed in duplicate. Following normalization to a negative control (e.g., a well containing medium only), a dose response curve can be plotted. Statistical software (e.g., from SPSS) can be used to perform curve fitting and analysis.
An efficient two-step immunomagnetic purification of a mixed cell population obtained from postnatal rat retina is used to provide a highly enriched population of RGCs for culture. The first step is an immunomagnetic depletion of […] non-RCGS using a cd11b/c. The second step is an immunomagnetic selection of RGCs with an antibody that binds Thy1 on the RGC cell surface. The cells are then released from the magnetic beads by digesting the DNA linker with a low concentration of DNase. Cells are grown on poly-d-lysine/laminin coated plastic plates in a basic medium (Neurobasal media, B27 supplement, glutamine, and penicillin/streptomycin).
(§1) The purified Thy-1 immunoreactive cells are resuspended in growth media (Neurobasal media, B27 supplement, 2 mM glutamine, and 1 U/ml penicillin/streptomycin) and quantified using a hematocytometer. Cells are seeded in 100 μl at a density of 4000 cells/well (150/mm^2) in 96 well culture dishes (Falcon) that had been sequentially coated with poly-d-lysine (0.01 mg/ml) and laminin (0.01 μg/μl) (Sigma). Each well either contains 25 μl of media alone or 5× drug or 5×BDNF and forskolin. Final concentrations are: DMSO (1%), drug (20 to 30 μM), BDNF (50 ng/ml) and forskolin (10 μM). Culture dishes are placed in an incubator maintained at 37° C. and 5% CO2. One hour after seeding, a post-seeding viability is determined by staining with Hoechst and TOTO3 and calculating the percent of live cells.
(§2) After 120 hours of incubation, cells are stained with 5 μM Hoechst and 10 μM Calcein AM (Molecular Probes). Calcein AM (Calcein acetoxymethyl), the dye that is used to stain living cells and their neurites, is a green dye that is permeant to living cells. After internalization by cells, the nonfluorescent calcein AM is converted to fluorescent calcein upon hydrolysis of the acetoymethyl ester by intracellular esterases. Cleavage of the AM group occurs spontaneously when calcein AM is suspended in aqueous solution resulting in a significant increase in background fluorescence over time. TOTO3, which stains the nuclei of dead cells, can be used to determine viability.
Fifteen stereotypic field are autofocus imaged on a Cellomics […]® High Content Scan Reader using epifluorescence and filter sets corresponding to each of the two dyes. This instrument employs a Zeiss fluorescence microscope, a temperature and CO2 live cell chamber, an integrated liquid handling system, and image analysis software that permits staining, imaging, and analysis of the cells and their neurites in approximately 5 hours per plate.

[2] = test system: retinal ganglion cells (RGCs); assay: RGCs on glass coverslips in 24-well plates, neurofilament immunostaining, counting neurons with neurite extension; type: cell-based, rat; details: neurofilament antibody
Procedure: FIG. 4. […] Immunopurified postnatal rat RGCs were cultured in increasing concentrations of TPAO in the presence of 1% DMSO. […] The effect of TPAO is synergistic with both BDNF and forskolin.
Although the developed technique for performing cell culture is effective and objective, it is desirable to assess the outcome of a screen using a different technique. Thus, for example, the technique of culturing cells on poly d-lysine and laminin coated coverslips in 24 well culture dishes under various culture conditions can be followed by immunostaining with anti-neurofilament antibody and quantitative analysis.
After determination of the dose response relationship and concentration at which the neuroprotective compound has it is maximal effect in culture, cells can be cultured on poly d-lysine and laminin coated cover slips (BD Pharmingen) in the presence of the neuroprotective compound, with appropriate positive and negative controls. […]
For example, in one embodiment cells are fixed with 4% paraformaldehyde, washed with PBS, blocked with PBS/0.1% Triton X/20% goat serum, and incubated overnight in PBS/0.1% Triton X/20% goat serum containing 1:100 dilution of rabbit anti-neurofilament (68 kd) antibody (Chemicon). […] The number of cells with neurite outgrowth at 3 different radii is determined (Scholl analysis) and compared using Student t test.

RGCs = details: peptide trophic factors; Meyer-Franke et al. 1995; cited from earlier work
[3] = test system: retinal ganglion cells (RGCs); assay: Overall cell survival of cultured RGCs after 120 hours; type: cell-based, rat; details: 50 ng/ml
Procedure: as §1, §2
Images are processed using the Cellomics Extended Neurite Outgrowth software program. In the initial image processing, cells are identified on the Hoechst channel and selected based on size such that of clusters of cells may be excluded from analysis. In addition, each nuclei on the Hoechst channel is matched to a calcein-stained cell and counted as a “valid neuron” (i.e., a live cell). Neurons can be further selected based on size in the calcein channel. The Extended Neurite Outgrowth program is used to trace neurites extending from these selected neurons. The mean neurite length, mean neurite count, mean number of branch points, and mean number of crosspoints are determined. In addition, the percent of cells with neurite features (e.g., neurite length, neurite count) surpassing a threshold of one standard deviation above the mean neurite characteristic of a set of reference wells containing cells and growth medium without additional growth factors is determined. The “neurite outgrowth” measurement is based on the combined mean neurite length and mean neurite count.

Row | Molecule | number of outgrowth neurons [1] | overall cell survival (number of surviving cells) [3] | also measured
1 | CC1(C)CC(=NOC(=O)c2ccccc2)CC(C)(C)N1 [2,2,6,6-tetramethyl-4-piperidinone O-benzoyloxime] | – | – | activity compared with TPAO [1]: less than that of TPAO; activity of compounds similar to TPAO [1]: showed activity
2 | CC1(C)CC(=NNC(N)=S)CC(C)(C)N1 [2,2,6,6-tetramethyl-4-piperidinone thiosemicarbazone] | – | – | activity compared with TPAO [1]: less than that of TPAO; activity of compounds similar to TPAO [1]: showed activity
3 | CC(=O)ON=C1CC(C)(C)NC(C)(C)C1 [TPAO, 2,2,6,6-tetramethyl-4-piperidinone O-acetyloxime] | – | – | effect in combination with BDNF and forskolin [1]: synergistic; dose dependence of survival/growth of neurite-bearing RGCs ([1]; dose response 3 μM to 150 μM): dose-dependent manner; activity if the medium was changed at 24 hours ([1]; medium change at 24 hours): lost; effect on neurons with a neurite extension greater than one cell body in diameter [2]: demonstrated
4 | BDNF: peptide trophic factor known to promote RGC survival; positive control | significantly increased; also recorded: Statistically significant increases | slight increase in the number of surviving cells that did not reach statistical significance | concentration of maximal effect on RGCs (RGCs): 10 ng/mL
5 | GDF8: BMP-related myostatin/Gdf8 (Growth and differentiation factor 8) | significantly increased; also recorded: Statistically significant increases | slight increase in the number of surviving cells that did not reach statistical significance | –
6 | TGFα: growth factor tested at 50 ng/ml on cultured RGCs | No significant change | no effect | –
7 | TGFβ1: growth factor tested at 50 ng/ml on cultured RGCs | No significant change | no effect | –
8 | TGFβ2: growth factor tested at 50 ng/ml on cultured RGCs (protein, UniProt P61812 303-414, looked up) Transforming growth factor …: ALDAAYCFRNVQDNCCLRPLYIDFKRDLGWKWIHEPKGYNANFCAGACPYLWSSDTQHSRVLSLYNTINPEASASPCCVSQDLEPLTILYYIGKTPKIEQLSNMIVKSCKCS | No significant change | no effect | –
9 | BMP13: bone morphogenetic protein, member of the TGFβ superfamily (protein, UniProt Q6KF10 336-455, looked up) Growth/differentiation factor …: TAFASRHGKRHGKKSRLRCSKKPLHVNFKELGWDDWIIAPLEYEAYHCEGVCDFPLRSHLEPTNHAIIQTLMNSMDPGSTPPSCCVPTKLTPISILYIDAGNNVVYKQYEDMVVESCGCR | significantly increased; also recorded: Statistically significant increases | no effect | –
10 | CNTF: peptide trophic factor (protein, UniProt P26441 1-200, looked up) Ciliary neurotrophic factor: MAFTEHSPLTPHRRDLCSRSIWLARKIRSDLTALTESYVKHQGLNKNINLDSADGMPVASTDQWSELTEAERLQENLQAYRTFHVLLARLLEDQQVHFTPTEGDFHQAIHTLLLQVAAFAYQIEELMILLEYKIPRNEADGMPINVGDGGLFEKKLWGLKVLQELSQWTVRSIHDLRFISSHQTGIPARGSHYIANNKKM | – | – | concentration of maximal effect on RGCs (RGCs): 0.1 ng/mL
